The subject of one experiment is P. aeruginosa ATCC 27853. Kind of experiment: MIC assay, CLSI broth microdilution, P. aeruginosa ATCC 27853 (APAE001). It counts as cell-based. Particulars: Pseudomonas aeruginosa, ATCC27853, 20 h, read-out: MIC APAE001. On the procedure:
(§1) Minimum inhibitory concentrations (MIC) were determined by reference Clinical and Laboratory Standards Institute (CLSI) broth microdilution methods per M7-A7 [2006]. Quality control ranges utilizing E. coli ATCC 25922, P. aeruginosa ATCC 27853 and S. aureus ATCC 29213, and interpretive criteria for comparator agents were as published in CLSI M100-S17 [2007]. Briefly, serial two-fold dilutions of the test compounds were prepared at 2× concentration in Mueller Hinton Broth. The compound dilutions were mixed in 96-well assay plates in a 1:1 ratio with bacterial inoculum. The inoculum was prepared by suspension of a colony from an agar plate that was prepared the previous day. Bacteria were suspended in sterile saline and added to each assay plate to obtain a final concentration of 5×10^5 CFU/mL. The plates were incubated at 35° C. for 20 hours in ambient air.

The test system of the next experiment is E. coli ATCC 25922. The experiment can be described thus: MIC assay, CLSI broth microdilution, E. coli ATCC 25922 (AECO001). It counts as cell-based. Particulars: Escherichia coli, ATCC25922, 20 h, read-out: MIC AECO001. The method, then:
as §1
These MIC assays were conducted following the same protocol as set forth in Example 110. As shown, substituted sisomicin derivatives with groups other than methyl at the 6′-position have improved activity against strains expressing the AAC6′-modifying enzymes.
(In broth dilution the organism is exposed to a series of concentrations in liquid medium.)

For 20 compounds, MIC results are on record in patent publication US11117915B2, “Antibacterial aminoglycoside analogs” (Cipla USA, Inc., priority 2007, dated 2021).

In brackets after ≈: the same amount, converted by molar mass. Bounds are passed on as bounds.

By MIC is commonly meant the lowest concentration found to suppress growth.

As for `CN[C@@H]1[C@@H](O)[C@@H](O[C@@H]2[C@@H](O)[C@H](O[C@H]3OC(CNCCCN)=CC[C@H]3N)[C@@H](N)C[C@H]2NC(=O)C(O)C2CNC2)OC[C@]1(C)O` (stereo partly shown) [Example 76, 6′-(3-Amino-propyl)-1-(2-(azetidin-3-yl)-2-hydroxy-acetyl)-sisomicin], the minimal inhibitory concentration (MIC) in the experiment with P. aeruginosa ATCC 27853 and in the experiment with E. coli ATCC 25922 was 1 to 16 µg/mL (≈ 1.62 to 25.9 µM) in each case.
`CN[C@@H]1[C@@H](O)[C@@H](O[C@@H]2[C@@H](O)[C@H](O[C@H]3OC(CNCCC4(O)CNC4)=CC[C@H]3N)[C@@H](N)C[C@H]2NC(=O)[C@@H](O)CN)OC[C@]1(C)O` [Example 70, 6′-(Ethyl-2-(3-hydroxy-azetidin-3-yl))-1-(3-amino-2(S)-hydroxy-propionyl)-sisomicin]: the MIC in the experiment on P. aeruginosa ATCC 27853 is over 16 µg/mL; in the experiment with E. coli ATCC 25922, 1 to 16 µg/mL (≈ 1.58 to 25.2 µM).
Regarding `CN[C@@H]1[C@@H](O)[C@@H](O[C@@H]2[C@@H](O)[C@H](O[C@H]3OC(CNCCO)=CC[C@H]3NC(=N)N)[C@@H](N)C[C@H]2N)OC[C@]1(C)O` [Example 106, 6′-(2-Hydroxy-ethyl)-2′-guanidinium-sisomicin], the MIC in the experiment on P. aeruginosa ATCC 27853 is 1 to 16 µg/mL (≈ 1.87 to 30 µM); in the experiment on E. coli ATCC 25922, under 1 µg/mL.
In the same order, the values of `CN[C@@H]1[C@@H](O)[C@@H](O[C@@H]2[C@@H](O)[C@H](O[C@H]3OC(CN)=CC[C@H]3NC(=O)C(N)CCCN)[C@@H](N)C[C@H]2NC(=O)[C@@H](O)CCN)OC[C@]1(C)O` (stereo partly drawn) [Example 99, 2′-(2,5-Diamino-pentoyl)-1-(4-amino-2(S)-hydroxy-butyryl)-sisomicin] are 1 to 16 µg/mL (≈ 1.51 to 24.1 µM) and 1 to 16 µg/mL (≈ 1.51 to 24.1 µM).
As to `CN[C@@H]1[C@@H](O)[C@@H](O[C@@H]2[C@@H](O)[C@H](O[C@H]3OC(CN)=CC[C@H]3NC(=O)C(O)CN)[C@@H](N)C[C@H]2NC(=O)[C@@H](O)CCN)OC[C@]1(C)O` (stereo partly drawn) [Example 89, 2′-(3-Amino-2-hydroxy-propionyl)-1-(4-amino-2(S)-hydroxy-butyryl)-sisomicin], the MIC was 1 to 16 µg/mL (≈ 1.57 to 25.2 µM) with P. aeruginosa ATCC 27853 and under 1 µg/mL in the experiment with E. coli ATCC 25922.
For `CN[C@@H]1[C@@H](O)[C@@H](O[C@@H]2[C@@H](O)[C@H](O[C@H]3OC(CNCC(O)CO)=CC[C@H]3N)[C@@H](N)C[C@H]2NC(=O)[C@H](O)CCN)OC[C@]1(C)O` (stereo partly drawn) [Example 3, 6′-(2-Hydroxy-propanol)-1-(4-amino-2(R)-hydroxy-butyryl)-sisomicin] the same measures were over 16 µg/mL and 1 to 16 µg/mL (≈ 1.61 to 25.7 µM).
In the same order, the values of `CN[C@@H]1[C@@H](O)[C@@H](O[C@@H]2[C@@H](O)[C@H](O[C@H]3OC(CNCC4(O)CC(N)C4)=CC[C@H]3N)[C@@H](N)C[C@H]2NC(=O)C2(O)CNC2)OC[C@]1(C)O` (stereo partly shown) [Example 47] are 1 to 16 µg/mL (≈ 1.55 to 24.8 µM) and 1 to 16 µg/mL (≈ 1.55 to 24.8 µM).
For `CN[C@@H]1[C@@H](O)[C@@H](O[C@@H]2[C@@H](O)[C@H](O[C@H]3OC(CNCC(O)CO)=CC[C@H]3N)[C@@H](N)C[C@H]2NC(=O)[C@@H](O)CN)OC[C@]1(C)O` (stereo partly drawn) [Example 14, 6′-(2-Hydroxy-propanol)-1-(3-amino-2(S)-hydroxy-propionyl)-sisomicin] the same measures were 1 to 16 µg/mL (≈ 1.64 to 26.3 µM) and 1 to 16 µg/mL (≈ 1.64 to 26.3 µM).
For `CN[C@@H]1[C@@H](O)[C@@H](O[C@@H]2[C@@H](O)[C@H](O[C@H]3OC(CNCC4(CN)CC4)=CC[C@H]3N)[C@@H](N)C[C@H]2NC(=O)C2(O)CCNC2)OC[C@]1(C)O` (stereo partly shown) [Example 79], the minimal inhibitory concentration (MIC) in the experiment with P. aeruginosa ATCC 27853 is over 16 µg/mL; in the experiment with E. coli ATCC 25922, 1 to 16 µg/mL (≈ 1.55 to 24.9 µM).
For `CN[C@@H]1[C@@H](O)[C@@H](O[C@@H]2[C@@H](O)[C@H](O[C@H]3OC(CNCC4CC4)=CC[C@H]3N)[C@@H](N)C[C@H]2NC(=O)[C@H](O)CCN)OC[C@]1(C)O` [Example 5, 6′-(Methyl-cyclopropyl)-1-(4-amino-2(R)-hydroxy-butyryl)-sisomicin], the MIC in the experiment on P. aeruginosa ATCC 27853 was 1 to 16 µg/mL (≈ 1.66 to 26.5 µM); with E. coli ATCC 25922, under 1 µg/mL.
Take `CN[C@@H]1[C@@H](O)[C@@H](O[C@@H]2[C@@H](O)[C@H](O[C@H]3OC(CNCC(O)CCN)=CC[C@H]3N)[C@@H](N)C[C@H]2NC(=O)C(O)C2CNC2)OC[C@]1(C)O` (stereo partly shown) [Example 77, 6′-(2-Hydroxy-4-amino-butyl)-1-(2-(azetidin-3-yl)-2-hydroxy-acetyl)-sisomicin]: the minimum inhibitory concentration (MIC) in the experiment on P. aeruginosa ATCC 27853 and with E. coli ATCC 25922 was 1 to 16 µg/mL (≈ 1.54 to 24.7 µM) throughout.
For `CN[C@@H]1[C@@H](O)[C@@H](O[C@@H]2[C@@H](O)[C@H](O[C@H]3OC(CNCC4CCNCC4)=CC[C@H]3N)[C@@H](N)C[C@H]2NC(=O)[C@H](O)CN)OC[C@]1(C)O` [Example 8, 6′-Methyl-piperidinyl-1-(3-amino-2(R)-hydroxy-propionyl)-sisomicin], the figures for the MIC in the experiment on P. aeruginosa ATCC 27853 and with E. coli ATCC 25922 were 1 to 16 µg/mL (≈ 1.58 to 25.3 µM) and under 1 µg/mL, respectively.
As to `CN[C@@H]1[C@@H](O)[C@@H](O[C@@H]2[C@@H](O)[C@H](O[C@H]3OC(CNCC4(N)CC4)=CC[C@H]3N)[C@@H](N)C[C@H]2NC(=O)[C@@H](O)CN)OC[C@]1(C)O` [Example 67, 6′-(Methyl-1-Amino-cyclopropyl)-1-(3-amino-2(S)-hydroxy-propionyl)-sisomicin], the MIC in the experiment with P. aeruginosa ATCC 27853 and in the experiment on E. coli ATCC 25922 was 1 to 16 µg/mL (≈ 1.66 to 26.5 µM) each time.
Turning to `CN[C@@H]1[C@@H](O)[C@@H](O[C@@H]2[C@@H](O)[C@H](O[C@H]3OC(CNCCCC(O)CN)=CC[C@H]3N)[C@@H](N)C[C@H]2NC(=O)[C@@H](O)CN)OC[C@]1(C)O` (stereo partly drawn) [Example 80, 6′-(4-Hydroxy-5-amino-pentyl)-1-(3-amino-2(S)-hydroxy-propionyl)-sisomicin], the MIC with P. aeruginosa ATCC 27853 and with E. coli ATCC 25922 was under 1 µg/mL throughout.
For the compound `CN[C@@H]1[C@@H](O)[C@@H](O[C@@H]2[C@@H](O)[C@H](O[C@H]3OC(CNCC4CCNCC4)=CC[C@H]3N)[C@@H](N)C[C@H]2NC(=O)[C@H](O)CCN)OC[C@]1(C)O` [Example 4, 6′-(Methyl-piperidin-4-yl)-1-(4-amino-2(R)-hydroxy-butyryl)-sisomicin], the minimal inhibitory concentration (MIC) in the experiment on P. aeruginosa ATCC 27853 and with E. coli ATCC 25922 was 1 to 16 µg/mL (≈ 1.55 to 24.8 µM) in each case.
Regarding `CN[C@@H]1[C@@H](O)[C@@H](O[C@@H]2[C@@H](O)[C@H](O[C@H]3OC(CNC[C@H]4C[C@@H](N)[C@@H](O)C4)=CC[C@H]3N)[C@@H](N)C[C@H]2NC(=O)[C@@H](O)CN)OC[C@]1(C)O` [Example 69, 6′-(Methyl-1(R)-amino-2(S)-hydroxy-cyclopent-4(S)-yl)-1-(3-amino-2(S)-hydroxy-propionyl)-sisomicin], the minimal inhibitory concentration (MIC) is 1 to 16 µg/mL (≈ 1.54 to 24.7 µM) in the experiment on P. aeruginosa ATCC 27853 and under 1 µg/mL in the experiment with E. coli ATCC 25922.
For `CN[C@@H]1[C@@H](O)[C@@H](O[C@@H]2[C@@H](O)[C@H](O[C@H]3OC(CNCCCN)=CC[C@H]3N)[C@@H](N)C[C@H]2NS(=O)(=O)CCN)OC[C@]1(C)O` [Example 26, 6′-(3-Amino-propyl)-1-(2-amino-ethylsulfonamide)-sisomicin] the same measures were 1 to 16 µg/mL (≈ 1.63 to 26.2 µM) and 1 to 16 µg/mL (≈ 1.63 to 26.2 µM).
In the same order, the values of `CN[C@@H]1[C@@H](O)[C@@H](O[C@@H]2[C@@H](O)[C@H](O[C@H]3OC(CNCC4CC4)=CC[C@H]3N)[C@@H](N)C[C@H]2NC(=O)[C@H](O)CN)OC[C@]1(C)O` [Example 7, 6′-Methyl-cyclopropyl-1-(3-amino-2(R)-hydroxy-propionyl)-sisomicin] are 1 to 16 µg/mL (≈ 1.7 to 27.2 µM) and under 1 µg/mL.
In the same order, the values of `CN[C@@H]1[C@@H](O)[C@@H](O[C@@H]2[C@@H](O)[C@H](O[C@H]3OC(CNC[C@H]4C[C@H](N)C4)=CC[C@H]3N)[C@@H](N)C[C@H]2NC(=O)C2(O)CNC2)OC[C@]1(C)O` [Example 63] are 1 to 16 µg/mL (≈ 1.59 to 25.4 µM) and under 1 µg/mL.
As for `CN[C@@H]1[C@@H](O)[C@@H](O[C@@H]2[C@@H](O)[C@H](O[C@H]3OC(CNCC4(O)CC(N)C4)=CC[C@H]3N)[C@@H](N)C[C@H]2NC(=O)[C@@H](O)CCN)OC[C@]1(C)O` (stereo partly shown) [Example 46], the MIC in the experiment with P. aeruginosa ATCC 27853 is 1 to 16 µg/mL (≈ 1.54 to 24.7 µM); in the experiment on E. coli ATCC 25922 it was under 1 µg/mL.
